Assay results as given in ChEMBL document CHEMBL5523727, “Discovery of KT-413, a Targeted Protein Degrader of IRAK4 and IMiD Substrates Targeting MYD88 Mutant Diffuse Large B-Cell Lymphoma” (J Med Chem, 2024).

What was measured:
[1] = biological target: Protein cereblon/Interleukin-1 receptor-associated kinase 4 (Homo sapiens, UniProt Q96SW2+Q9NWZ3); experiment: Binding affinity to CRBN/IRAK4 […] assessed as dissociation constant by DiscoverX Kd Elect assay
[2] = system: OCI-Ly10; experiment: Antiproliferative activity against human OCI-Ly10 cells measured after 4 days by CellTiter-Glo Luminescent Cell Viability Assay; assay type: functional, cell-based; conditions: Homo sapiens, OCI-Ly10, 96 h
[3] = biological target: T1, Cereblon/Ikaros (Homo sapiens, UniProt Q96SW2+Q13422); experiment: PROTAC activity at CRBN/Ikaros in human OCI-Ly10 cells assessed as induction of Ikaros degradation measured after 6 hrs by MSD assay relative to control; assay type: cell-based
[4] = Passive permeability of the compound in wild type MDCK cells across apical to basolateral side at 1 uM measured for 120 mins by LC-MS/MS analysis; assay type: ADME, cell-based, Canis lupus familiaris; conditions: dog, read-out: permeability
[5] = biological target: T1, Cereblon/Ikaros; experiment: PROTAC activity at CRBN/Ikaros in human OCI-Ly10 cells assessed as induction of Ikaros degradation measured after 24 hrs by MSD assay; assay type: cell-based
[6] = biological target: T2, Protein cereblon/Interleukin-1 receptor-associated kinase 4 (Homo sapiens, UniProt Q9NWZ3+Q96SW2); experiment: PROTAC activity at CRBN/IRAK4 in human OCI-Ly10 cells assessed as induction of IRAK4 degradation measured after 24 hrs by MSD assay; assay type: cell-based
Target sequence in this assay (Q9NWZ3 whole entry): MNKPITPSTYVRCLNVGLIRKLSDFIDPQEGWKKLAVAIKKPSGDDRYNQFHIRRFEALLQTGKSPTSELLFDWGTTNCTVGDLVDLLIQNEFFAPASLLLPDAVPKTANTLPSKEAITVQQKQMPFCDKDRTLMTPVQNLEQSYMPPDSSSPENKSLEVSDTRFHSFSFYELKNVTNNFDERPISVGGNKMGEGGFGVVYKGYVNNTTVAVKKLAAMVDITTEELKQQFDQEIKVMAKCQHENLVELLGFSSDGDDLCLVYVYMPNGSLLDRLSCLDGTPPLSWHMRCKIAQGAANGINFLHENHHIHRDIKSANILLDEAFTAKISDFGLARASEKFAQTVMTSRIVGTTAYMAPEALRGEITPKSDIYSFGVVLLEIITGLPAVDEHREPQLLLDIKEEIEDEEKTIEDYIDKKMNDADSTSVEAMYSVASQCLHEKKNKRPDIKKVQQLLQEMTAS
Target sequence in this assay (Q96SW2 whole entry): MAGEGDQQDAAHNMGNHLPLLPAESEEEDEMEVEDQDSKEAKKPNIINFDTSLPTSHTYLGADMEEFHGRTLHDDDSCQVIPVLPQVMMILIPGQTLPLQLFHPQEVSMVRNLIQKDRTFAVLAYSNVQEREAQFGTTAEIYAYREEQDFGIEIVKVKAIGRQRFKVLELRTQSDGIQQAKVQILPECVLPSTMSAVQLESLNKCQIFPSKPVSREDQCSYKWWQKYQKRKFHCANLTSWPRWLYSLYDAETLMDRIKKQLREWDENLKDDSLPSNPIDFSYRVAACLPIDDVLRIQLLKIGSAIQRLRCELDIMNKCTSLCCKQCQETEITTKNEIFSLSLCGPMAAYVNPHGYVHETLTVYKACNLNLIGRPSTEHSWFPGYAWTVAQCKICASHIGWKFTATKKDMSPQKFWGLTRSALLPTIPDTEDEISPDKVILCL

[7] = biological target: Protein cereblon (Homo sapiens, UniProt Q96SW2); experiment: Binding affinity to CRBN (unknown origin) by HTRF assay
[8] = Half life in rat at 2 mg/kg, iv by LC-MS/MS analysis; assay type: ADME, organism-based; conditions: in vivo
[9] = biological target: T2, Protein cereblon/Interleukin-1 receptor-associated kinase 4; experiment: PROTAC activity at CRBN/IRAK4 in human OCI-Ly10 cells assessed as induction of IRAK4 degradation measured after 24 hrs by MSD assay relative to control; assay type: cell-based
Target sequence in this assay (Q96SW2 whole entry, looked up): as the sequence (Q96SW2 whole entry) above
Target sequence in this assay (Q9NWZ3 whole entry, looked up): as the sequence (Q9NWZ3 whole entry) above

[10] = AUC in rat at 3 mg/kg, po by LC-MS/MS analysis; assay type: ADME, organism-based; conditions: in vivo
[11] = Volume of distribution at steady state in rat at 2 mg/kg, iv by LC-MS/MS analysis; assay type: ADME, organism-based; conditions: in vivo, read-out: Vdss
[12] = Metabolic stability in human liver microsomes assessed as intrinsic clearance at 1 uM measured upto 60 mins in presence of NADPH by UPLC/MS-MS analysis; assay type: ADME, Microsome; conditions: read-out: CLH
[13] = Oral bioavailability in rat at 3 mg/kg by LC-MS/MS analysis; assay type: ADME, organism-based; conditions: in vivo
[14] = Metabolic stability in rat liver microsomes assessed as intrinsic clearance at 1 uM measured upto 60 mins in presence of NADPH by UPLC/MS-MS analysis; assay type: ADME, Microsome; conditions: read-out: CLH
[15] = Clearance in rat at 2 mg/kg, iv by LC-MS/MS analysis; assay type: ADME, organism-based; conditions: in vivo

T1 sequence (Q96SW2 whole entry): as the sequence (Q96SW2 whole entry) above
T1 sequence (Q13422 whole entry): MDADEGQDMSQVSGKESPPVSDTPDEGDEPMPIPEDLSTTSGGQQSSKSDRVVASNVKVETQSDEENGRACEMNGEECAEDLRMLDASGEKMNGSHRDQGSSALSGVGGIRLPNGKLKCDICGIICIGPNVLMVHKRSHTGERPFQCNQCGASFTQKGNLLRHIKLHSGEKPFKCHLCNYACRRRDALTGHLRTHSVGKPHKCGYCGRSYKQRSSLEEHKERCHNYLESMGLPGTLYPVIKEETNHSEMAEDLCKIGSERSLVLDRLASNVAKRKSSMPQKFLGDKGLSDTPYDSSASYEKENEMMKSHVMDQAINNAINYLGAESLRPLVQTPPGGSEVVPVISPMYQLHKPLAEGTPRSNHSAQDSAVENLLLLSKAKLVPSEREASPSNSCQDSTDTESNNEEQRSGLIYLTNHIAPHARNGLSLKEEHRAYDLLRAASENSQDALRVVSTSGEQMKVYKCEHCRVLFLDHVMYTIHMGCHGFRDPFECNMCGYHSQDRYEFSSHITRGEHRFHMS
Chain of Protein cereblon (Q96SW2 whole entry): as the sequence (Q96SW2 whole entry) above
Chain of Protein cereblon/Interleukin-1 receptor-associated kinase 4 (Homo sapiens, UniProt Q96SW2+Q9NWZ3) (Q9NWZ3 whole entry): as the sequence (Q9NWZ3 whole entry) above
Chain of Protein cereblon/Interleukin-1 receptor-associated kinase 4 (Homo sapiens, UniProt Q96SW2+Q9NWZ3) (Q96SW2 whole entry): as the sequence (Q96SW2 whole entry) above

## CN(CCCCc1cccc2c1C(=O)N(C1CCC(=O)NC1=O)C2=O)C[C@H]1CC[C@H](n2cc3cc(NC(=O)c4cccc(C(F)(F)F)n4)c(C(C)(C)O)cc3n2)CC1 (some centres undefined)
[1]
  Kd: 0.14 nM
[2]
  IC50: > 1000 nM
[3]
  Emax: 40%
[4]
  Papp A→B at 2 h, 1 µM: 1.3 ×10⁻⁶ cm/s
[5]
  DC50: > 1000 nM
[6]
  DC50: 20 nM
[7]
  IC50: 91 nM

## COc1cc2nc([C@H]3CC[C@H](CN4CC5(CC(CCNc6cccc7c6C(=O)N(C6CCC(=O)NC6=O)C7=O)C5)C4)CC3)oc2cc1NC(=O)c1cccc(C(F)(F)F)n1 (some centres undefined)
[2]
  IC50: 53 nM
[4]
  Papp A→B at 2 h, 1 µM: 0.34 ×10⁻⁶ cm/s
[5]
  DC50: 6 nM
[8]
  half-life: 12 h
[9]
  Emax: 68%
[10]
  AUC: 0.5 µM·h
[11]
  Vd: 9.6 L/kg
[12]
  microsomal CLint at 1 µM: 3.9 µL/min/mg
[6]
  DC50: 190 nM
[13]
  bioavailability: 10%
[14]
  microsomal CLint at 1 µM: 2.9 µL/min/mg
[15]
  clearance: 9.4 mL/min/kg
